Data reported in US20140004243A1, “SALTY TASTE ENHANCER” (AJINOMOTO CO., INC., priority 2011, published 2014).

Test system: human
Assay: Sensory evaluation of salty taste enhancing activity of compound of the present invention in human
Format: in vivo
Settings: n=5; for salty taste enhancing rate (fold) middle and after taste: after 2 seconds; for salty taste enhancing rate (fold) initial taste: first 2 seconds
Description: The intensity of a salty taste enhancing activity and the strength of a bitter taste were examined by a quantitative sensory evaluation test for the compound of the present invention (compounds of Examples 11 and 51).
The quantitative sensory evaluation test was performed as follows. Distilled water containing sodium chloride (0.8 g/dl) was mixed with capsazepine as a sample at 0.001 g/dl, or the compound of Example 11 or Example 51 at 0.0001 to 0.001 g/dl, and the level of a salty taste enhancing activity was measured. Distilled water containing 0.8 g/dl of sodium chloride was used as a control, and distilled water containing 0.9 g/dl or 1.0 g/dl of sodium chloride was used as a comparison target. Using a linear measurement method, a straight line showing 1.0-fold (0.8 g/dl), 1.13-fold (0.9 g/dl), 1.25-fold (1.0 g/dl) positions of sodium chloride concentration was drawn and the position showing the strength of the corresponding salty taste was put down thereon. As for the strength of a bitter taste, using the bitter taste of a solution obtained by mixing distilled water containing sodium chloride (0.8 g/dl) with capsazepine at 0.0001 to 0.001 g/dl as the standard, the strength of the bitter taste of the solution obtained by mixing the compound of Example 11 or Example 51 at 0.0001 to 0.001 g/dl was relatively evaluated by comparison. The points were marked based on 0 point for no bitter taste, and 5.0 points for the strength of the bitter taste of a solution containing 0.001 g/dl capsazepine. The test was performed at n=5. […] The “initial taste” means the evaluation of the strength of the salty taste for 2 seconds after placing in the mouth, and the “middle and after taste” means a combination of middle taste and after taste, which is the evaluation of the strength of the salty taste after 2 seconds from placing in the mouth.

[1] = sample 0.0001 g/dl in 0.8 g/dl sodium chloride
[2] = sample 0.0005 g/dl in 0.8 g/dl sodium chloride
[3] = sample 0.001 g/dl in 0.8 g/dl sodium chloride

Row | SMILES | salty taste enhancing rate (fold) middle and after taste [1] [fold] | salty taste enhancing rate (fold) initial taste [1] [fold] | salty taste enhancing rate (fold) middle and after taste [2] [fold] | salty taste enhancing rate (fold) initial taste [2] [fold] | salty taste enhancing rate (fold) middle and after taste [3] [fold] | salty taste enhancing rate (fold) initial taste [3] [fold]
1 | C[C@@H](NC(=S)NCCc1ccccc1)c1ccccc1 [Example 11] | 1.10 | 1.10 | 1.14 | 1.15 | 1.14 | 1.13
2 | OC[C@@H](NC(=S)NCCc1ccccc1)c1ccccc1 [Example 51] | 1.11 | 1.09 | 1.17 | 1.13 | 1.17 | 1.17
3 | Oc1cc2c(cc1O)CN(C(=S)NCCc1ccc(Cl)cc1)CCC2 [capsazepine] | 1.11 | 1.11 |  |  |  | 
